From patent EP2762573A1, “In vitro method for determining cholestatic properties of a compound” (priority 2013, dated 2014)

Experiments:
Conditions in all cases: male, C57BL/6, mouse
[1] = test system: BAAT; test: Biomarkers validation by q-pcr in precision cut liver slices: BAAT expression
Method: (§1) 23-weeks old male C57BL/6 mice were obtained from Harlan (Horst, The Netherlands). Animals were kept for 1 week at a housing temperature of 22°C and at a relative humidity of 30-70%. The lighting cycle was 12-h light and 12-h dark. At the age of 24 weeks animals were sacrificed by an overdose of isoflurane. The treatment protocol was approved by the Ethical Committee for Animal Experiments at Wageningen University.
(§2) Immediately after the animals were killed the liver was perfused with PBS and placed in ice-cold Krebs-Henseleit buffer (KHB) (pH 7.4, supplemented with 11 mM glucose). Liver tissue was transported to the laboratory within approximately 30 min and cylindrical liver cores were produced using a surgical biopsy punch with diameter of 5 mm (KAI, SynErgo Europe, Romania). Liver cores were placed in a Krumdieck tissue slicer (Alabama Research and Development, Munford, AL) filled with ice-cold KHB aerated with carbogen and supplemented with 11 mM glucose. Precesion cut liver slices (PCLS) with a diameter of 5 mm, a thickness of 0.2 mm and a weight of approximately 10 mg were prepared. Immediately after preparation, slices were transferred into culture plates filled with pre-warmed (37 degrees C) Williams E medium (WEM). Three liver slices were pre-cultured in one well of the 6-well plate filled with 4 ml of WEM for one hour with continuous shaking (70 rpm). Incubations were performed in an oxygen controlled incubator (Galaxy 48 R New Brunswick, Nijmegen, the Netherlands) at 80% of oxygen; 5% CO2 and the remaining gas volume was filled up to […] with N2. After one hour of pre-incubation, media were removed and replaced with fresh media containing test compounds or appropriate solvents. After incubations, samples were snap-frozen in liquid nitrogen and stored in -80 °C for further analysis. Samples dedicated to histology were stored in 4 % formaldehyde at room temperature.
(§3) PCLS were incubated at the same conditions as described above. Slices were exposed for 24 and 48 hours to one concentration of the tested compounds or controls. Concentrations used in the exposure experiments were preselected in the dose selection experiments for each drug individually. […] For the necrotic compounds: 1000 uM acetaminophen, 5 µM paraquat and 1000 uM isoniazid. Liver slices obtained from five mice were used in five toxic compound or control exposure experiments performed at the same time. Dose selection experiments and exposure experiments were performed at different days. Therefore, ATP, LDH, and protein assays were performed again for the exposure experiments to confirm that the selected doses did also not affect slice viability in these experiments.
(§4) In further studies, expression of ten candidate biomarkers in PCLS was analyzed by q-pcr using the Biorad CFX96 TM Real-Time Detection System (Bio-Rad, Veenendaal, The Netherlands) with the following cycling conditions: 15 min 95°C followed by 40 cycles of 15s 95 °C and 1 min 60 °C. Reactions were performed in 10 µl and contained 20 ng cDNA, 1x TaqMan PCR Master Mix (Applied Biosystems, Foster City, CA), and depending on the analysed gene, 250 nM probe and 900 nM primer (for actin b) or 1xTaqMan gene expression assay (for the remaining genes) (Applied Biosystems, foster City, CA).

[2] = test system: Bcl2l11; test: Biomarkers validation by q-pcr in precision cut liver slices: Bcl2l11 expression
Method: as §1, §2, §3, §4

[3] = test system: Myo1e; test: Biomarkers validation by q-pcr in precision cut liver slices: Myo1e expression
Method: as §1, §2, §3, §4

[4] = test system: KLF15; test: Biomarkers validation by q-pcr in precision cut liver slices: KLF15 expression
Method: as §1, §2, §3, §4

[5] = test system: Nme6; test: Biomarkers validation by q-pcr in precision cut liver slices: Nme6 expression
Method: as §1, §2, §3, §4

[6] = test system: PCLS; test: Cytotoxicity analysis - dose selection experiments (LDH, ATP, protein assay)
Method: as §1, §2, §3

[7] = test system: SERPINE1; test: Biomarkers validation by q-pcr in precision cut liver slices: SERPINE1 expression
Method: as §1, §2, §3, §4

[8] = test system: ABCG8; test: Biomarkers validation by q-pcr in precision cut liver slices: ABCG8 expression
Method: as §1, §2, §3, §4

[9] = test system: Parp16; test: Biomarkers validation by q-pcr in precision cut liver slices: Parp16 expression
Method: as §1, §2, §3, §4

[10] = test system: ABCG5; test: Biomarkers validation by q-pcr in precision cut liver slices: ABCG5 expression
Method: as §1, §2, §3, §4

[11] = test system: Mras; test: Biomarkers validation by q-pcr in precision cut liver slices: Mras expression
Method: as §1, §2, §3, §4

NNC(=O)c1ccncc1 [ISONZ, isoniazid]
*fold change 1, gene expression level BAAT [1]: 1,8 | *fold change 2, gene expression level BAAT [1]: 1,7 | *fold change 3, gene expression level BAAT [1]: 1,1 | *fold change 4, gene expression level BAAT [1]: -1,3 | *fold change 5, gene expression level BAAT [1]: 1,3 | *fold change 1, gene expression level Bcl2111 [2]: 1,9 | *fold change 2, gene expression level Bcl2111 [2]: 1,7 | *fold change 3, gene expression level Bcl2111 [2]: 1,3 | *fold change 4, gene expression level Bcl2111 [2]: -1,2 | *fold change 5, gene expression level Bcl2111 [2]: -1,2 | *fold change 1, gene expression level Myo 1e [3]: 1,5 | *fold change 2, gene expression level Myo 1e [3]: 1,3 | *fold change 3, gene expression level Myo 1e [3]: 1,3 | *fold change 4, gene expression level Myo 1e [3]: -1,3 | *fold change 5, gene expression level Myo 1e [3]: 1,1 | *fold change 1, gene expression level KLF15 [4]: 1,2 | *fold change 2, gene expression level KLF15 [4]: 2,4 | *fold change 3, gene expression level KLF15 [4]: 1,0 | *fold change 4, gene expression level KLF15 [4]: 1,1 | *fold change 5, gene expression level KLF15 [4]: 1,2 | *fold change 1, gene expression level Nme6 [5]: 1,3 | *fold change 2, gene expression level Nme6 [5]: 1,2 | *fold change 3, gene expression level Nme6 [5]: 1,1 | *fold change 4, gene expression level Nme6 [5]: -1,3 | *fold change 5, gene expression level Nme6 [5]: -1,1 | highest concentration that did not cause significant increase of toxicity [6]: 1000 µM | *fold change 1, gene expression level SERPINE1 [7]: 5,4 | *fold change 2, gene expression level SERPINE1 [7]: 1,9 | *fold change 3, gene expression level SERPINE1 [7]: 1,4 | *fold change 4, gene expression level SERPINE1 [7]: -1,4 | *fold change 5, gene expression level SERPINE1 [7]: -2,9 | *fold change 1, gene expression level ABCG8 [8]: 2,1 | *fold change 2, gene expression level ABCG8 [8]: 2,8 | *fold change 3, gene expression level ABCG8 [8]: 1,0 | *fold change 4, gene expression level ABCG8 [8]: 2,3 | *fold change 5, gene expression level ABCG8 [8]: 1,9 | *fold change 1, gene expression level Parp 16 [9]: -1,0 | *fold change 2, gene expression level Parp 16 [9]: -1,0 | *fold change 3, gene expression level Parp 16 [9]: 1,2 | *fold change 4, gene expression level Parp 16 [9]: -2,3 | *fold change 5, gene expression level Parp 16 [9]: -1,8 | *fold change 1, gene expression level ABCG5 [10]: 2,0 | *fold change 2, gene expression level ABCG5 [10]: 3,0 | *fold change 3, gene expression level ABCG5 [10]: 1,1 | *fold change 4, gene expression level ABCG5 [10]: 2,0 | *fold change 5, gene expression level ABCG5 [10]: 2,0 | *fold change 1, gene expression level Mras [11]: 1,7 | *fold change 2, gene expression level Mras [11]: -1,1 | *fold change 3, gene expression level Mras [11]: 1,3 | *fold change 4, gene expression level Mras [11]: -1,3 | *fold change 5, gene expression level Mras [11]: -1,3

CCCC(CCC)C(=O)O [VA, valproic acid]
highest concentration that did not cause significant increase of toxicity [6]: 200 µM
